Results on 18 molecules are retold here after ChEMBL document CHEMBL1201862, “PubChem BioAssay data set” (2004).

Molecules are shown by their SMILES.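 1) Cells in 96-well plates. 2) Compound, 48 h, 5 concentrations. 3) Linear interpolation between surrounding doses. 4) Unreached endpoint = highest concentration. The concentration for 50% growth inhibition is given as GI50.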 Activity calls are given as the source filed them. No stated cut-off is given here; in the data, active = GI50 up to about 1.1 µM and inactive = higher. A value given as a limit tells only on which side of the number the result lay.

Among the test systems are DLD-1; DMS-273; HOP-18; KM-20L2; LXFL 529; M19-MEL; SNB-78; XF498; RXF 631.
Common to all, as to assay: growth of human tumour cells (NCI), 48 h

As for `O=C1C[C@@H]2[C@@H](CCC23CC3)N1`, the GI50 with DLD-1, with DMS-273, in the assay on HOP-18, in the assay on KM-20L2, in the assay with LXFL 529 and in the assay on M19-MEL was > 100 µM (inactive) throughout. Also, in the assay on SNB-78, the GI50 was > 100 µM (inactive).

Consider `CCC/N=C/c1c(O)c(O)c(C(C)C)c2cc(C)c(-c3c(C)cc4c(C(C)C)c(O)c(O)c(/C=N/CCC)c4c3O)c(O)c12`, for which the GI50 was 2.86 µM (inactive) in the assay on KM-20L2, 3.73 µM (inactive) with LXFL 529, 4.05 µM (inactive) in the assay on M19-MEL and 2.58 µM (inactive) with SNB-78.

`COC(=O)[C@@]12C(=O)CCC(=O)C1C1C(=CC2C)O[C@@H]2OC3(CCCCC3)O[C@H]12` (some centres undefined): the GI50 with DLD-1 was 58.3 µM (inactive); with DMS-273, > 100 µM (inactive); in the assay with HOP-18, > 64.3 µM (inactive); with KM-20L2, > 100 µM (inactive); in the assay on LXFL 529, 44.5 µM (inactive); in the assay with M19-MEL, 61.9 µM (inactive). Further, the figures for the GI50 in the assay on SNB-78 and in the assay with XF498 were > 100 µM (inactive) and > 38.4 µM (inactive), respectively.

Take `CC(=O)c1sc(-c2nc(C)c(C(=O)/C=C\c3ccc(/C=C\C(=O)c4sc(-c5nc(C)c(C(C)=O)s5)nc4C)cc3)s2)nc1C`: the GI50 with DLD-1, with DMS-273, in the assay with HOP-18, in the assay with KM-20L2, in the assay with LXFL 529 and in the assay with M19-MEL was > 100 µM (inactive) in each case. In addition, the GI50 in the assay with SNB-78 and with XF498 was > 100 µM (inactive) throughout.

Consider `C=C(CC(NC(=O)c1ccc(C(CC)Cc2cnc3nc(N)nc(N)c3n2)cc1)C(=O)O)C(=O)O` (centres undefined), for which the GI50 is 0.000574 µM (active) with DLD-1; 0.000644 µM (active) in the assay with DMS-273; 0.0429 µM (active) with HOP-18; 0.01 µM (active) in the assay on KM-20L2; 0.00239 µM (active) with LXFL 529; 27.7 µM (inactive) in the assay with SNB-78.

`O=C(NCCCCCCNC(=O)n1cc(F)c(=O)[nH]c1=O)NCCCOCCOCCOCCOCCOCCOCCOCCOCCOCCOCCOCCOCCOCCOCCOCCOCCOCCOCCOCCOCCOCCCNC(=O)C(O)C(O)C(O)C(O)CO` (centres undefined): the GI50 in the assay on DLD-1 was 9.33 µM (inactive); in the assay with DMS-273, 33.3 µM (inactive); in the assay with HOP-18 it was > 100 µM (inactive); in the assay on KM-20L2, 22.5 µM (inactive); with M19-MEL, 61.7 µM (inactive); with SNB-78, > 100 µM (inactive). Moreover, in the assay on XF498, the GI50 is 15.6 µM (inactive).

As to `O=C(NCC(O)CNC(=O)C(F)(F)F)C(F)(F)F`, the GI50 in the assay on DLD-1, with DMS-273, in the assay on HOP-18, in the assay on KM-20L2, in the assay on LXFL 529 and in the assay on M19-MEL was > 100 µM (inactive) in each case. Also, the GI50 with SNB-78 and in the assay with XF498 was > 100 µM (inactive) each time.

For the molecule `Cc1nc2ccc(N)cc2nc1O`, the GI50 in the assay with DLD-1, in the assay with DMS-273, in the assay with KM-20L2, in the assay with LXFL 529, in the assay on M19-MEL and in the assay on RXF 631 was > 100 µM (inactive) each time. The GI50 with SNB-78 was > 100 µM (inactive).

Turning to `COC(=O)C1(C)CCc2c(OC)ccc(OC)c2C1=O` (centres undefined), the GI50 in the assay with DLD-1, with DMS-273, in the assay with LXFL 529, in the assay on M19-MEL, with RXF 631 and with SNB-78 was > 100 µM (inactive) each time. Also, the GI50 in the assay with XF498 was > 100 µM (inactive).

In the case of `Cc1ccc(-c2cc(=O)c3cc(C)c(C)c(C(=O)O)c3o2)cc1[N+](=O)[O-]`, the GI50 in the assay with DLD-1, in the assay on DMS-273, in the assay with HOP-18, in the assay with KM-20L2, in the assay with LXFL 529 and in the assay on M19-MEL was > 100 µM (inactive) throughout. Also, in the assay with SNB-78, the GI50 is > 100 µM (inactive).

`CCOC(=O)C12C(C(=O)OC)=C(C)N(NC(=O)Nc3ccccc3)C1(N)N(NC(=O)Nc1ccccc1)C(C)=C2C(=O)OC` (centres undefined): the GI50 was 41.5 µM (inactive) with DLD-1; 27.7 µM (inactive) in the assay with DMS-273; 32.9 µM (inactive) with HOP-18; 20.5 µM (inactive) with KM-20L2; 26.1 µM (inactive) in the assay on LXFL 529; 18 µM (inactive) in the assay with M19-MEL. Besides, the GI50 with SNB-78 is 47.4 µM (inactive); in the assay on XF498 it was 24.3 µM (inactive).

Turning to `[O-][S+]1c2ccccc2N=C(c2cccs2)CC1c1ccccc1O` (centres undefined), the GI50 in the assay on DLD-1 is 60.8 µM (inactive); with KM-20L2 it was > 100 µM (inactive); in the assay with LXFL 529 it was > 100 µM (inactive); with M19-MEL, > 100 µM (inactive); in the assay with RXF 631 it was > 100 µM (inactive); with XF498, 32.1 µM (inactive).

As to `NC(=O)NC12CC3CC(CC(F)(C3)C1)C2`, the GI50 in the assay on DLD-1, in the assay with DMS-273, with KM-20L2, in the assay on LXFL 529, in the assay on M19-MEL and with RXF 631 was > 100 µM (inactive) each time. Moreover, the GI50 in the assay on SNB-78 and in the assay on XF498 was > 100 µM (inactive) each time.

For `Cc1ccc(N2C(=O)CS/C2=C(\C#N)c2nc3ccccc3[nH]2)cc1`, the GI50 in the assay on DLD-1, in the assay with DMS-273, in the assay with HOP-18, with KM-20L2, in the assay on LXFL 529 and with M19-MEL was > 100 µM (inactive) each time. Moreover, the GI50 in the assay with XF498 was > 100 µM (inactive).

As to `CCCOC(=O)C1CCC(=O)N1C(=O)C(Cl)Cl` (centres undefined), the GI50 in the assay with DLD-1, with DMS-273, with HOP-18, with KM-20L2, with LXFL 529 and in the assay with M19-MEL was > 100 µM (inactive) in each case. For the same molecule, the GI50 in the assay with SNB-78 and in the assay with XF498 was > 100 µM (inactive) in each case.

With `O=C1OC(c2ccccc2)=N/C1=C\c1cccc2ccccc12`, the GI50 in the assay on DLD-1, in the assay on DMS-273, in the assay with HOP-18, in the assay on LXFL 529, with M19-MEL and with SNB-78 was > 100 µM (inactive) throughout. Also, the GI50 in the assay on XF498 is > 100 µM (inactive).

`CC(C)N(C(=O)C12C3C4C5(C#N)C3C1(I)C5C42I)C(C)C` (centres undefined): the GI50 is > 92.7 µM (inactive) in the assay with DLD-1; > 57.7 µM (inactive) in the assay on DMS-273; 97.5 µM (inactive) in the assay with HOP-18; > 66.7 µM (inactive) in the assay on KM-20L2; > 71.6 µM (inactive) in the assay on LXFL 529; > 58.2 µM (inactive) with M19-MEL. Also, the GI50 in the assay on SNB-78 is 67.9 µM (inactive); in the assay on XF498, > 100 µM (inactive).

`N#CN=C(NCc1ccccc1)NCc1ccccc1`: the GI50 with DLD-1 was > 47.4 µM (inactive); in the assay with DMS-273, > 41.9 µM (inactive); with HOP-18, > 100 µM (inactive); with KM-20L2, > 100 µM (inactive); with LXFL 529, > 92 µM (inactive); in the assay on M19-MEL, > 54.7 µM (inactive). Also, the GI50 in the assay on SNB-78 was > 100 µM (inactive); in the assay with XF498 it was > 77.1 µM (inactive).
